The target of this experiment is T1, pirin (Homo sapiens, UniProt O00625).
T1 construct: gene PIR
T1 sequence (O00625 1-290): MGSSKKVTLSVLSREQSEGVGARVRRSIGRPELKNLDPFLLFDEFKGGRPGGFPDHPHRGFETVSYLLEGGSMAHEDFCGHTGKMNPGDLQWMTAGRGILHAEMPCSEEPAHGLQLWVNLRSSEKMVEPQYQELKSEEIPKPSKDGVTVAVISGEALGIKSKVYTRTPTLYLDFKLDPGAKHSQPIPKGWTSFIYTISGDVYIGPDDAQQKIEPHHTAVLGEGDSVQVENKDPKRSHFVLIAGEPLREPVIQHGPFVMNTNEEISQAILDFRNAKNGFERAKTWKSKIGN
Briefly: fluorescence polarization competition with a pirin FP reporter compound. Type of experiment: binding. The conditions noted are these: read-out: CCG-257081 (S enantiomer) [drawing 1]. On the technique in general: In fluorescence polarisation assays a small probe gives low polarisation when free and higher when bound to something large.

`O=C(Nc1ccc(Cl)cc1)[C@@H]1CN(C(=O)c2cc(F)cc(-c3ccncc3)c2)CC(F)(F)C1` [(S) CCG-257081]: the IC50 was determined as 8 µM.
